{"source": "paper PMC5218480", "about": "(PLoS ONE, 2017)", "tested_on": "MV-4-11 cells", "assay": "Gene expression microarray analysis (Affymetrix PrimeView) and GSEA", "assay_type": "cell-based, human", "set-up": "RFU PODN (11730768_x_at) / Fold change /veh PODN (11730768_x_at) / RFU LINC00158 (11744669_a_at) / Fold change /veh LINC00158 (11744669_a_at) / RFU DUSP10 (11751237_a_at) / Fold change /veh DUSP10 (11751237_a_at) / RFU ID3 (11757404_x_at) / Fold change /veh ID3 (11757404_x_at) / RFU PLEKHG5 (11737974_s_at) / Fold change /veh PLEKHG5 (11737974_s_at) / RFU LRRC4B (11730491_at) / Fold change /veh LRRC4B (11730491_at) / RFU GIMAP4 (11747438_a_at) / Fold change /veh GIMAP4 (11747438_a_at) / RFU KRT8 (11758183_x_at) / Fold change /veh KRT8 (11758183_x_at) / RFU CNN1 (11734310_a_at) / Fold change /veh CNN1 (11734310_a_at) / RFU VPS37D (11726825_at) / Fold change /veh VPS37D (11726825_at) / RFU C10orf10 (11716522_x_at) / Fold change /veh C10orf10 (11716522_x_at) / RFU KIR2DL2 /// KIR2DL4 /// KIR2DL5A /// KIR2DL5B /// KIR2DS1 /// KIR2DS2 /// KIR2DS3 /// KIR2DS4 /// KIR3DL3 /// KIR3DL3 /// KIR3DS1 (11738374_at) / Fold change /veh KIR2DL2 /// KIR2DL4 /// KIR2DL5A /// KIR2DL5B /// KIR2DS1 /// KIR2DS2 /// KIR2DS3 /// KIR2DS4 /// KIR3DL3 /// KIR3DL3 /// KIR3DS1 (11738374_at) / RFU C1QL1 (11718748_at) / Fold change /veh C1QL1 (11718748_at) / RFU TMPRSS4 (11747572_a_at) / Fold change /veh TMPRSS4 (11747572_a_at) / RFU HAMP (11756126_x_at) / Fold change /veh HAMP (11756126_x_at) / RFU RNFT2 (11725882_a_at) / Fold change /veh RNFT2 (11725882_a_at) / RFU NR4A2 (11747474_a_at) / Fold change /veh NR4A2 (11747474_a_at) / RFU ABCC12 (11746883_a_at) / Fold change /veh ABCC12 (11746883_a_at) / RFU TMEM136 (11760407_x_at) / Fold change /veh TMEM136 (11760407_x_at) / RFU CLDN22 /// WWC2 (11732394_at) / Fold change /veh CLDN22 /// WWC2 (11732394_at) / RFU HLA-DPB1 (11760878_x_at) / Fold change /veh HLA-DPB1 (11760878_x_at) / RFU SPINT1 (11716480_a_at) / Fold change /veh SPINT1 (11716480_a_at) / RFU GAP43 (11754022_s_at) / Fold change /veh GAP43 (11754022_s_at) / RFU A4GNT (11735810_at) / Fold change /veh A4GNT (11735810_at) / RFU PRB3 (11715151_x_at) / Fold change /veh PRB3 (11715151_x_at) / RFU TUBB4B (11761932_at) / Fold change /veh TUBB4B (11761932_at) / RFU CAPN14 (11732068_a_at) / Fold change /veh CAPN14 (11732068_a_at) / RFU TMCC2 (11721928_a_at) / Fold change /veh TMCC2 (11721928_a_at) / RFU IRGQ (11745062_a_at) / Fold change /veh IRGQ (11745062_a_at) / RFU FAM174B (11720279_a_at) / Fold change /veh FAM174B (11720279_a_at) / RFU TMPRSS4 (11748680_a_at) / Fold change /veh TMPRSS4 (11748680_a_at) / RFU FAM212B (11763350_a_at) / Fold change /veh FAM212B (11763350_a_at) / RFU PLEKHG5 (11743358_a_at) / Fold change /veh PLEKHG5 (11743358_a_at) / RFU ZSCAN30 (11745921_a_at) / Fold change /veh ZSCAN30 (11745921_a_at) / RFU CMKLR1 (11741424_a_at) / Fold change /veh CMKLR1 (11741424_a_at) / RFU LOC101060620 /// MAPK8IP1 (11723275_at) / Fold change /veh LOC101060620 /// MAPK8IP1 (11723275_at) / RFU SPTSSB (11747773_x_at) / Fold change /veh SPTSSB (11747773_x_at) / RFU PRSS12 (11739890_at) / Fold change /veh PRSS12 (11739890_at) / RFU BIN1 (11741810_x_at) / Fold change /veh BIN1 (11741810_x_at) / RFU WNT11 (11732464_a_at) / Fold change /veh WNT11 (11732464_a_at) / RFU C10orf10 (11716521_a_at) / Fold change /veh C10orf10 (11716521_a_at) / RFU C5orf56 (11738089_at) / Fold change /veh C5orf56 (11738089_at) / RFU CYB561 (11721691_x_at) / Fold change /veh CYB561 (11721691_x_at) / RFU ANKRD19P (11752326_a_at) / Fold change /veh ANKRD19P (11752326_a_at) / RFU OR2T12 /// OR2T33 /// OR2T8 (11738714_s_at) / Fold change /veh OR2T12 /// OR2T33 /// OR2T8 (11738714_s_at) / RFU VCAN (11748164_a_at) / Fold change /veh VCAN (11748164_a_at) / RFU JSRP1 (11732532_at) / Fold change /veh JSRP1 (11732532_at) / RFU KRTAP10-11 (11738290_x_at) / Fold change /veh KRTAP10-11 (11738290_x_at) / RFU MYO3A (11730013_a_at) / Fold change /veh MYO3A (11730013_a_at) / RFU EBF3 (11725865_a_at) / Fold change /veh EBF3 (11725865_a_at) / RFU CAMK2N1 (11719241_x_at) / Fold change /veh CAMK2N1 (11719241_x_at) / RFU C5orf56 (11738088_a_at) / Fold change /veh C5orf56 (11738088_a_at) / RFU OLFML3 (11715873_a_at) / Fold change /veh OLFML3 (11715873_a_at) / RFU LOC100653217 /// NTM (11731650_a_at) / Fold change /veh LOC100653217 /// NTM (11731650_a_at) / RFU MAPK11 (11762145_a_at) / Fold change /veh MAPK11 (11762145_a_at) / RFU FIZ1 (11724087_x_at) / Fold change /veh FIZ1 (11724087_x_at) / RFU OASL (11726364_x_at) / Fold change /veh OASL (11726364_x_at) / RFU SOX15 (11748057_x_at) / Fold change /veh SOX15 (11748057_x_at) / RFU CD79A (11719716_a_at) / Fold change /veh CD79A (11719716_a_at) / RFU HIST1H1D (11736915_at) / Fold change /veh HIST1H1D (11736915_at) / RFU CASKIN2 (11723855_a_at) / Fold change /veh CASKIN2 (11723855_a_at) / RFU LOC730098 (11760151_x_at) / Fold change /veh LOC730098 (11760151_x_at) / RFU OR4N2 (11742367_at) / Fold change /veh OR4N2 (11742367_at) / RFU PRRT2 (11749266_a_at) / Fold change /veh PRRT2 (11749266_a_at) / RFU SNX32 (11753110_a_at) / Fold change /veh SNX32 (11753110_a_at) / RFU CDHR5 (11726645_a_at) / Fold change /veh CDHR5 (11726645_a_at) / RFU RCAN1 (11760418_a_at) / Fold change /veh RCAN1 (11760418_a_at) / RFU FAM167A (11723789_a_at) / Fold change /veh FAM167A (11723789_a_at) / RFU FAM26E (11764081_at) / Fold change /veh FAM26E (11764081_at) / RFU ISYNA1 (11749810_s_at) / Fold change /veh ISYNA1 (11749810_s_at) / RFU ACY1 (11761880_at) / Fold change /veh ACY1 (11761880_at) / RFU 11764098_at / Fold change /veh 11764098_at / RFU SAMD14 (11745864_x_at) / Fold change /veh SAMD14 (11745864_x_at) / RFU NPB (11741838_a_at) / Fold change /veh NPB (11741838_a_at) / RFU TMPRSS6 (11731388_a_at) / Fold change /veh TMPRSS6 (11731388_a_at) / RFU KRTAP10-2 (11738614_at) / Fold change /veh KRTAP10-2 (11738614_at) / RFU ARHGAP8 /// PRR5-ARHGAP8 (11727945_x_at) / Fold change /veh ARHGAP8 /// PRR5-ARHGAP8 (11727945_x_at) / RFU KRTAP5-7 /// NADSYN1 (11734609_at) / Fold change /veh KRTAP5-7 /// NADSYN1 (11734609_at) / RFU RASL12 (11751679_a_at) / Fold change /veh RASL12 (11751679_a_at) / RFU CDKN2B (11736163_a_at) / Fold change /veh CDKN2B (11736163_a_at) / RFU PRF1 (11729649_at) / Fold change /veh PRF1 (11729649_at) / RFU, ZNF638 /// ZNF638-IT1 / Fold change vs veh, ZNF638 /// ZNF638-IT1 / RFU, PANK3 / Fold change vs veh, PANK3 / RFU, SH3YL1 / Fold change vs veh, SH3YL1 / RFU, ZEB2 / Fold change vs veh, ZEB2 / RFU, NRIP1 / Fold change vs veh, NRIP1 / RFU, PTTG1IP / Fold change vs veh, PTTG1IP / RFU, CAPN2 / Fold change vs veh, CAPN2 / RFU, MED14 / Fold change vs veh, MED14 / RFU, SNORA58 / Fold change vs veh, SNORA58 / RFU, C1orf63 / Fold change vs veh, C1orf63 / RFU, LRRFIP1 / Fold change vs veh, LRRFIP1 / RFU, NDUFAF7 / Fold change vs veh, NDUFAF7 / RFU, SLC12A2 / Fold change vs veh, SLC12A2 / RFU, IBTK / Fold change vs veh, IBTK / RFU, ESF1 / Fold change vs veh, ESF1 / Fold change vs veh, TMEM50B / RFU, TAOK1 / Fold change vs veh, TAOK1 / RFU, ACBD3 / Fold change vs veh, ACBD3 / RFU, TMA16 / Fold change vs veh, TMA16 / RFU, RWDD3 / Fold change vs veh, RWDD3 / RFU, BCAT1 / Fold change vs veh, BCAT1 / RFU, EDEM3 / Fold change vs veh, EDEM3 / RFU, TMEM33 / Fold change vs veh, TMEM33 / RFU, WDR75 / Fold change vs veh, WDR75 / RFU, AHCTF1 / Fold change vs veh, AHCTF1 / RFU, TFRC / Fold change vs veh, TFRC / RFU, ZDHHC17 / Fold change vs veh, ZDHHC17 / RFU, NOM1 / Fold change vs veh, NOM1 / RFU, ARL8B / Fold change vs veh, ARL8B / RFU, ZBTB11 / Fold change vs veh, ZBTB11 / RFU, TAMM41 / Fold change vs veh, TAMM41 / RFU, KIAA1704 /// LOC100996395 / Fold change vs veh, KIAA1704 /// LOC100996395 / RFU, ING1 / Fold change vs veh, ING1 / RFU, TRMT61B / Fold change vs veh, TRMT61B / RFU, FUBP3 / Fold change vs veh, FUBP3 / RFU, TP53 / Fold change vs veh, TP53 / RFU, TNKS2 / Fold change vs veh, TNKS2 / RFU, ZFP14 / Fold change vs veh, ZFP14 / RFU, ACTR2 / Fold change vs veh, ACTR2 / RFU, PPP3R1 / Fold change vs veh, PPP3R1 / RFU, PIK3R1 / Fold change vs veh, PIK3R1 / RFU, HNRNPA1 / Fold change vs veh, HNRNPA1 / RFU, RNF170 / Fold change vs veh, RNF170 / RFU, ZNF28 / Fold change vs veh, ZNF28 / RFU, RNGTT / Fold change vs veh, RNGTT / RFU, OGT / Fold change vs veh, OGT / RFU, BRD1 / Fold change vs veh, BRD1 / RFU, MARS / Fold change vs veh, MARS / RFU, ZNF655 / Fold change vs veh, ZNF655 / RFU, FAHD1 / Fold change vs veh, FAHD1 / RFU, BDP1 / Fold change vs veh, BDP1 / RFU, LRRCC1 / Fold change vs veh, LRRCC1 / RFU, ARID1A / Fold change vs veh, ARID1A / RFU, ZNF146 / Fold change vs veh, ZNF146 / RFU, ZNF330 / Fold change vs veh, ZNF330 / RFU, GPN3 / Fold change vs veh, GPN3 / RFU, C9orf123 / Fold change vs veh, C9orf123 / RFU, N4BP2L2 / Fold change vs veh, N4BP2L2 / RFU, ARFIP1 / Fold change vs veh, ARFIP1 / RFU, FAM179B / Fold change vs veh, FAM179B / RFU, BCL10 / Fold change vs veh, BCL10 / RFU, UHRF1BP1L / Fold change vs veh, UHRF1BP1L / RFU, BET1 / Fold change vs veh, BET1 / RFU, CNOT2 / Fold change vs veh, CNOT2 / RFU, ZNF268 / Fold change vs veh, ZNF268 / Fold change vs veh, ZNF507 / RFU, DGCR2 / Fold change vs veh, DGCR2 / RFU, WDSUB1 / Fold change vs veh, WDSUB1 / Fold change vs veh, HSP90B1 /// MIR3652 / RFU, ADSS / Fold change vs veh, ADSS / RFU, GK / Fold change vs veh, GK / RFU, ZNF148 / Fold change vs veh, ZNF148 / RFU, TAF9 / Fold change vs veh, TAF9 / RFU, SLC1A5 / Fold change vs veh, SLC1A5 / RFU, SLMO2 / Fold change vs veh, SLMO2 / RFU, ABCC4 / Fold change vs veh, ABCC4 / RFU, LOC101060439 /// RAP1B / Fold change vs veh, LOC101060439 /// RAP1B / RFU, RFX7 / Fold change vs veh, RFX7 / RFU, GTPBP10 / Fold change vs veh, GTPBP10 / RFU, CNEP1R1 / Fold change vs veh, CNEP1R1 / RFU, BIVM-ERCC5 /// ERCC5 / Fold change vs veh, BIVM-ERCC5 /// ERCC5 / RFU, ILF3 / Fold change vs veh, ILF3 / RFU 11762660_at / Fold change /veh 11762660_at / RFU VCAN (11757783_s_at) / Fold change /veh VCAN (11757783_s_at) / RFU DDX43 (11728927_at) / Fold change /veh DDX43 (11728927_at) / RFU KRT8 (11758188_x_at) / Fold change /veh KRT8 (11758188_x_at) / RFU NKD1 (11759106_at) / Fold change /veh NKD1 (11759106_at) / RFU SRD5A1 (11742802_a_at) / Fold change /veh SRD5A1 (11742802_a_at) / RFU TPSAB1 /// TPSB2 (11721975_s_at) / Fold change /veh TPSAB1 /// TPSB2 (11721975_s_at) / RFU GSTM3 (11746129_a_at) / Fold change /veh GSTM3 (11746129_a_at) / RFU IL23R (11737362_x_at) / Fold change /veh IL23R (11737362_x_at) / RFU TMEM51 (11727254_a_at) / Fold change /veh TMEM51 (11727254_a_at) / RFU PIWIL2 (11732686_x_at) / Fold change /veh PIWIL2 (11732686_x_at) / RFU ORM1 (11744905_x_at) / Fold change /veh ORM1 (11744905_x_at) / RFU CCDC152 (11743942_at) / Fold change /veh CCDC152 (11743942_at) / RFU ECM1 (11717891_a_at) / Fold change /veh ECM1 (11717891_a_at) / RFU IL23R (11748794_a_at) / Fold change /veh IL23R (11748794_a_at) / RFU TNFAIP8L3 (11732012_x_at) / Fold change /veh TNFAIP8L3 (11732012_x_at) / RFU MBOAT4 (11741988_at) / Fold change /veh MBOAT4 (11741988_at) / RFU 11764193_at / Fold change /veh 11764193_at / RFU TMEM53 (11763286_at) / Fold change /veh TMEM53 (11763286_at) / RFU MAGEB2 (11727129_at) / Fold change /veh MAGEB2 (11727129_at) / RFU TMEM200A (11744735_a_at) / Fold change /veh TMEM200A (11744735_a_at) / RFU CCDC152 (11751479_a_at) / Fold change /veh CCDC152 (11751479_a_at) / RFU FAM211A (11726209_a_at) / Fold change /veh FAM211A (11726209_a_at) / RFU RGS16 (11746705_a_at) / Fold change /veh RGS16 (11746705_a_at) / RFU VCAN (11755009_s_at) / Fold change /veh VCAN (11755009_s_at) / RFU RHOB (11743442_s_at) / Fold change /veh RHOB (11743442_s_at) / RFU RGS16 (11720943_a_at) / Fold change /veh RGS16 (11720943_a_at) / RFU RGS16 (11720944_at) / Fold change /veh RGS16 (11720944_at) / RFU, VPS4B / Fold change vs veh, VPS4B / RFU, CREB1 / Fold change vs veh, CREB1 / RFU, DNAJC13 / Fold change vs veh, DNAJC13 / RFU, GNAQ / Fold change vs veh, GNAQ / RFU, CDK5R1 / Fold change vs veh, CDK5R1 / RFU, ZRANB3 / Fold change vs veh, ZRANB3 / RFU, CUL4A / Fold change vs veh, CUL4A / RFU, CCNY / Fold change vs veh, CCNY / RFU, UFL1 / Fold change vs veh, UFL1 / RFU, COG3 / Fold change vs veh, COG3 / RFU, DIAPH2 / Fold change vs veh, DIAPH2 / RFU, SKA2 / Fold change vs veh, SKA2 / RFU, AFF3 / Fold change vs veh, AFF3 / RFU, LMF1 / Fold change vs veh, LMF1 / RFU, IPO11 / Fold change vs veh, IPO11 / RFU, DFFB / Fold change vs veh, DFFB / RFU, FOXP1 / Fold change vs veh, FOXP1 / RFU, CARD8 / Fold change vs veh, CARD8 / RFU, STRN3 / Fold change vs veh, STRN3 / RFU, ADK / Fold change vs veh, ADK / RFU, RASSF2 / Fold change vs veh, RASSF2 / RFU, WIPF1 / Fold change vs veh, WIPF1 / RFU, LARP1B / Fold change vs veh, LARP1B / RFU, RASA1 / Fold change vs veh, RASA1 / RFU, RB1 / Fold change vs veh, RB1 / RFU, PPFIA1 / Fold change vs veh, PPFIA1 / RFU, MAT2A / Fold change vs veh, MAT2A / RFU, CCT5 / Fold change vs veh, CCT5 / RFU, WDR92 / Fold change vs veh, WDR92 / RFU, CUX1 / Fold change vs veh, CUX1 / RFU, TTC7A / Fold change vs veh, TTC7A / RFU, TMEM135 / Fold change vs veh, TMEM135 / RFU, DEPTOR / Fold change vs veh, DEPTOR / RFU, CPM / Fold change vs veh, CPM / RFU, DNAJB6 / Fold change vs veh, DNAJB6 / RFU, CACNA2D3 / Fold change vs veh, CACNA2D3 / RFU, DTX4 / Fold change vs veh, DTX4 / RFU, TFCP2 / Fold change vs veh, TFCP2 / RFU, GMCL1 /// GMCL1P1 / Fold change vs veh, GMCL1 /// GMCL1P1 / RFU, AEBP2 / Fold change vs veh, AEBP2 / RFU, SNHG1 /// SNORD22 /// SNORD25 /// SNORD26 /// SNORD27 /// SNORD28 /// SNORD29 /// SNORD31 / Fold change vs veh, SNHG1 /// SNORD22 /// SNORD25 /// SNORD26 /// SNORD27 /// SNORD28 /// SNORD29 /// SNORD31 / Fold change (Aza/veh), C12orf56 (ProbeSet 11735607_a_at) / Fold change (ACY-1035/veh), C12orf56 (ProbeSet 11735607_a_at) / Fold change (Aza/veh), FGFR1OP (ProbeSet 11751329_s_at) / Fold change (ACY-1035/veh), FGFR1OP (ProbeSet 11751329_s_at) / Fold change (Aza/veh), VPS36 (ProbeSet 11739960_a_at) / Fold change (ACY-1035/veh), VPS36 (ProbeSet 11739960_a_at) / RFU SYPL1 (11715823_x_at) / Fold change /veh SYPL1 (11715823_x_at) / RFU IGFBP7 (11715501_s_at) / Fold change /veh IGFBP7 (11715501_s_at) / RFU REEP3 (11722064_at) / Fold change /veh REEP3 (11722064_at) / RFU IGLL1 (11728026_x_at) / Fold change /veh IGLL1 (11728026_x_at): dose or concentration left out as unconfirmed", "conditions": "MV-4-11 cells, 48 hours"}
{"smiles": "Nc1ncn([C@@H]2O[C@H](CO)[C@@H](O)[C@H]2O)c(=O)n1", "note": "[azacitidine]", "values": [{"measurement": "Fold change /veh ABCC12 (11746883_a_at)", "value": 0.93}]}
